Reference: patent US9586963B2 (GENFIT, priority 2011, dated 2017)
Structures can show the parent of a compound that is named as a salt.

Legend:
Rev-Erb alpha = biological target: T1, Rev-Erb alpha (Homo sapiens, UniProt P20393); assay: M2H (mammalian two-hybrid) cellular activation assay of Rev-Erb alpha; assay type: cell-based; details: M2H assay, HEK293 cells, Gal4-Rev-Erb alpha / VP16-NCoR, luciferase reporter
T1 sequence (P20393 284-614 limits assumed): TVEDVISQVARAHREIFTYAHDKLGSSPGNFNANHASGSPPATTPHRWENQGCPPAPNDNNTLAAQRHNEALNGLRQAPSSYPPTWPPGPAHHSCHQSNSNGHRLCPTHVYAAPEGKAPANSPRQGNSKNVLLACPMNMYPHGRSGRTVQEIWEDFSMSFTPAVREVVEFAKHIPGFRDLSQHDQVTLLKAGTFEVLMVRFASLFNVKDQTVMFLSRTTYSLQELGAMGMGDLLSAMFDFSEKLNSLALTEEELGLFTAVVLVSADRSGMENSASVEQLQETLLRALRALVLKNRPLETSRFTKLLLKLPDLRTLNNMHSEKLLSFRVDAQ
Summary of the method: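 Six-point dose-response, 18 h, 37 °C, serum-free, in HEK293 cells carrying a Gal4-RE luciferase reporter with Gal4-Rev-Erb alpha or beta plus VP16-NCoR (corepressor interaction readout). EC50 and TOP activation (%) derived from luminescence across four experiments.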

Row | melting point [°C] | EC50 (Rev-Erb alpha) [nM] | SMILES
1 | 72 |  | OCc1ccc(Oc2ccc3nnc(Cl)n3n2)c(-c2ccccc2)c1 (as salt: sodium) [Cpd.4-66, 3-chloro-6-(5-hydroxymethyl-biphenyl-2-yloxy)-[1,2,4]triazolo[4,3-b]pyridazine]
2 | 75.9 to 78.8 |  | COC(=O)c1ccc(Oc2ccc3nnc(Cl)n3n2)c(-c2ccccc2)c1 (as salt: sodium) [Cpd.4-69, 3-chloro-6-(5-methyloxycarbonyl-biphenyl-2-yloxy)-[1,2,4]triazolo[4,3-b]pyridazine]
3 | 217.7 to 220 |  | NC(=O)c1cccc(-c2ccc(C(F)(F)F)cc2Oc2ccc3nnc(Cl)n3n2)c1 (as salt: sodium) [Cpd.4-72, 3-chloro-6-(4-trifluoromethyl-3′-aminocarbonyl-biphenyl-2-yloxy)-[1,2,4]triazolo[4,3-b]pyridazine]
4 | 91.3 to 93.4 |  | COc1cccc(-c2cc(F)ccc2Oc2ccc3nnc(Cl)n3n2)c1 (as salt: sodium) [Cpd.4-76, 3-chloro-6-(5-fluoro-3′ methoxy-biphenyl-2-yloxy)-[1,2,4]triazolo[4,3-b]pyridazine]
5 | 82.5 | 1000 to 6000 | COc1ccccc1-c1cccc(Oc2ccc3nnc(Cl)n3n2)c1 [Cpd.3-8, 6-(2′-methoxy-biphenyl-3-yloxy)-3-chloro-[1,2,4]triazolo[4,3-b]pyridazine]
6 | 88 | 100 to 1000 | Fc1ccc(-c2cccc(Oc3ccc4nnc(Cl)n4n3)c2)cc1 [Cpd.3-9, 6-(4′-fluoro-biphenyl-3-yloxy)-3-chloro-[1,2,4]triazolo[4,3-b]pyridazine]
7 | 128.6 | 100 to 1000 | Fc1ccccc1-c1cccc(Oc2ccc3nnc(Cl)n3n2)c1 [Cpd.3-10, 6-(2′-fluoro-biphenyl-3-yloxy)-3-chloro-[1,2,4]triazolo[4,3-b]pyridazine]
8 | 82.4 | 1000 to 6000 | Clc1ccccc1-c1cccc(Oc2ccc3nnc(Cl)n3n2)c1 [Cpd.3-11, 6-(2′-chloro-biphenyl-3-yloxy)-3-chloro-[1,2,4]triazolo[4,3-b]pyridazine]
9 | 128 | 1000 to 6000 | Clc1ccc(-c2cccc(Oc3ccc4nnc(Cl)n4n3)c2)cc1 [Cpd.3-12, 6-(4′-chloro-biphenyl-3-yloxy)-3-chloro-[1,2,4]triazolo[4,3-b]pyridazine]
10 | 77.5 to 123.8 | 100 to 1000 | Clc1cccc(-c2cccc(Oc3ccc4nnc(Cl)n4n3)c2)c1 [Cpd.3-13, 3-chloro-6-(3′-chlorobiphenyl-3-yloxy)-[1,2,4]triazolo[4,3-b]pyridazine]
11 | 91.46 | 1000 to 6000 | COc1cccc(-c2cccc(Oc3ccc4nnc(Cl)n4n3)c2)c1 [Cpd.3-14, 3-chloro-6-(3′-methoxybiphenyl-3-yloxy)-[1,2,4]triazolo[4,3-b]pyridazine]
12 | 164.6 | 100 to 1000 | COc1ccc(Oc2ccc3nnc(Cl)n3n2)c(-c2ccccc2)c1 [Cpd.4-14, 6-(5-methoxybiphenyl-2-yloxy)-3-chloro-[1,2,4]triazolo[4,3-b]pyridazine]
13 | 148.4 | 100 to 1000 | Fc1ccc(Oc2ccc3nnc(Cl)n3n2)c(-c2ccccc2)c1 [Cpd.4-15, 6-(5-fluoro-biphenyl-2-yloxy)-3-chloro-[1,2,4]triazolo[4,3-b]pyridazine]
14 | 95.9 | 100 to 1000 | Fc1ccccc1-c1ccccc1Oc1ccc2nnc(Cl)n2n1 [Cpd.4-17, 6-(2′-fluoro-biphenyl-2-yloxy)-3-chloro-[1,2,4]triazolo[4,3-b]pyridazine]
15 | 129.3 | 100 to 1000 | Fc1ccc(-c2ccccc2Oc2ccc3nnc(Cl)n3n2)cc1F [Cpd.4-20, 6-(3′,4′-difluoro-biphenyl-2-yloxy)-3-chloro-[1,2,4]triazolo[4,3-b]pyridazine]
16 | 203.7 | 100 to 1000 | Oc1cccc(-c2ccccc2Oc2ccc3nnc(Cl)n3n2)c1 [Cpd.4-21, 6-(3′-hydroxy-biphenyl-2-yloxy)-3-chloro-[1,2,4]triazolo[4,3-b]pyridazine]
17 | 138.1 | 100 to 1000 | COc1ccc(-c2ccccc2Oc2ccc3nnc(Cl)n3n2)cc1 [Cpd.4-22, 6-(4′-methoxy-biphenyl-2-yloxy)-3-chloro-[1,2,4]triazolo[4,3-b]pyridazine]
18 | 166.9 to 173.4 | 100 to 1000 | Cc1ccc(-c2ccccc2Oc2ccc3nnc(Cl)n3n2)cc1 [Cpd.4-23, 6-(4′-methyl-biphenyl-2-yloxy)-3-chloro-[1,2,4]triazolo[4,3-b]pyridazine]

Row | melting point [°C] | EC50 (Rev-Erb alpha) [nM] | SMILES
19 | 185.8 | 100 to 1000 | FC(F)(F)c1ccc(-c2ccccc2Oc2ccc3nnc(Cl)n3n2)cc1 [Cpd.4-24, 6-(4′-trifluoromethyl-biphenyl-2-yloxy)-3-chloro-[1,2,4]triazolo[4,3-b]pyridazine]
20 | 81.9 | < 100 | Clc1ccccc1-c1ccccc1Oc1ccc2nnc(Cl)n2n1 [Cpd.4-25, 6-(2′-chloro-biphenyl-2-yloxy)-3-chloro-[1,2,4]triazolo[4,3-b]pyridazine]
21 | 125.6 | 100 to 1000 | Fc1cc(Oc2ccc3nnc(Cl)n3n2)c(-c2ccccc2)cc1F [Cpd.4-26, 6-(4,5-difluoro-biphenyl-2-yloxy)-3-chloro-[1,2,4]triazolo[4,3-b]pyridazine]
22 | 144.5 | < 100 | Cc1ccc(Oc2ccc3nnc(Cl)n3n2)c(-c2ccccc2)c1 [Cpd.4-27, 6-(5-methyl-biphenyl-2-yloxy)-3-chloro-[1,2,4]triazolo[4,3-b]pyridazine]
23 | 123.4 | 100 to 1000 | Fc1cccc(-c2ccc(F)cc2Oc2ccc3nnc(Cl)n3n2)c1 [Cpd.4-30, 6-(3′-fluoro-4-fluoro-biphenyl-2-yloxy)-3-chloro-[1,2,4]triazolo[4,3-b]pyridazine]
24 | 129.7 | 100 to 1000 | Fc1ccc(-c2ccc(F)cc2Oc2ccc3nnc(Cl)n3n2)cc1 [Cpd.4-31, 6-(4′-fluoro-4-fluoro-biphenyl-2-yloxy)-3-chloro-[1,2,4]triazolo[4,3-b]pyridazine]
25 | 267.7 | 1000 to 6000 | Oc1ccc(Oc2ccc3nnc(Cl)n3n2)c(-c2ccccc2)c1 [Cpd.4-32, 6-(5-hydroxy-biphenyl-2-yloxy)-3-chloro-[1,2,4]triazolo[4,3-b]pyridazine]
26 | 138.9 | < 100 | FC(F)(F)c1ccc(-c2ccccc2)c(Oc2ccc3nnc(Cl)n3n2)c1 [Cpd.4-33, 6-(4-trifluoromethyl-biphenyl-2-yloxy)-3-chloro-[1,2,4]triazolo[4,3-b]pyridazine]
27 | 171.7 | 100 to 1000 | COc1ccc(-c2ccc(F)cc2)c(Oc2ccc3nnc(Cl)n3n2)c1 [Cpd.4-34, 6-(4′-fluoro-4-methoxy-biphenyl-2-yloxy)-3-chloro-[1,2,4]triazolo[4,3-b]pyridazine]
28 | 166.2 | 100 to 1000 | Clc1ccc(Oc2ccc3nnc(Cl)n3n2)c(-c2ccccc2)c1 [Cpd.4-35, 6-(5-chloro-biphenyl-2-yloxy)-3-chloro-[1,2,4]triazolo[4,3-b]pyridazine]
29 | 150 | 100 to 1000 | FC(F)(F)c1ccc(-c2ccccc2)c(Oc2ccc3nnc(C(F)(F)F)n3n2)c1 [Cpd.4-38, 6-(4-trifluoromethyl-biphenyl-2-yloxy)-3-(trifluoromethyl)-[1,2,4]triazolo[4,3-b]pyridazine]
30 | 141 to 144 | 1000 to 6000 | CN(C)Cc1ccc(-c2ccccc2)c(Oc2ccc3nnc(Cl)n3n2)c1 [Cpd.4-41, 3-chloro-6-(4-N,N-dimethylaminomethyl-biphenyl-2-yloxy)-[1,2,4]triazolo[4,3-b]pyridazine]
31 | 266.9 to 267.7 |  | O=C(O)c1ccc(Oc2ccc3nnc(Cl)n3n2)c(-c2ccccc2)c1 [Cpd.4-59, 3-chloro-6-(5-hydroxycarbonyl-biphenyl-2-yloxy)-[1,2,4]triazolo[4,3-b]pyridazine]
32 | 60.8 to 62.5 |  | CNC(Cc1ccccc1)c1ccc(Oc2ccc3nnc(Cl)n3n2)c(-c2ccccc2)c1 (centres unmarked) [Cpd.4-158, 3-chloro-6-(5-(benzylmethylaminomethyl)biphenyl-2-yloxy)-[1,2,4]triazolo[4,3-b]pyridazine]
33 | 114.3 to 117 |  | CC(NCCc1ccccc1)c1ccc(Oc2ccc3nnc(Cl)n3n2)c(-c2ccccc2)c1 (centres unmarked) [Cpd.4-165, 3-chloro-6-(5-(methylphenethylaminomethyl)biphenyl-2-yloxy)-[1,2,4]triazolo[4,3-b]pyridazine]
34 | 50.6 |  | CC(NC1CCCCC1)c1ccc(Oc2ccc3nnc(Cl)n3n2)c(-c2ccccc2)c1 (centres unmarked) [Cpd.4-167, 3-chloro-6-(5-(methyl-cyclohexylaminomethyl)biphenyl-2-yloxy)-[1,2,4]triazolo[4,3-b]pyridazine]
35 | 162 to 164 |  | FC(F)(F)c1ccc(-c2ccccc2)c(Oc2cc(-c3ccccc3)c3nnc(Cl)n3n2)c1 [Cpd.5-4, 3-chloro-8-phenyl-6-(4-trifluoromethyl-biphenyl-2-yloxy)-[1,2,4]triazolo[4,3-b]pyridazine]
36 | 130 to 133 |  | FC(F)(F)c1ccc(-c2ccccc2)c(Oc2nn3c(Cl)nnc3cc2C2CC2)c1 [Cpd.5-14, 3-chloro-7-cyclopropyl-6-(4-trifluoromethyl-biphenyl-2-yloxy)-[1,2,4]triazolo[4,3-b]pyridazine]
